Experimental data from PubChem BioAssay AID248 (DTP/NCI, 2004).
Values joined by “and” are separate entries in the source; they are usually repeats but may differ in a detail not shown here. Equal values may be shown once. Inconclusive results and toxic doses are left out. Cut-off read from the data, not from the text of the source: active = T/C of 150% or more; inactive = T/C below 125%.

Test system: L1210 leukemia ip in BDF1 mice, survival T/C
Experiment: NCI In Vivo Anticancer Drug Screen. Data for tumor model L1210 Leukemia (intraperitoneal) in B6D2F1 (BDF1) mice
Settings: endpoint: mean survival time, higher = longer survival
Procedure, shortened: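 In this screen, tumor-bearing mice given compound are compared to those given vehicle, and their survival values are reported as a treated-to-control quotient.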

[1] = dose: 100.0 mg/kg/injection, schedule: Q04DX003 (ip), vehicle: saline with Tween-80
[2] = dose: 200.0 mg/kg/injection, schedule: Q04DX003 (ip), vehicle: saline with Tween-80
[3] = dose: 400.0 mg/kg/injection, schedule: Q04DX003 (ip), vehicle: saline with Tween-80
[4] = dose: 100.0 mg/kg/injection, schedule: Q04DX003 (ip), vehicle: Klucel (hydroxypropylcellulose) (HPC)
[5] = dose: 200.0 mg/kg/injection, schedule: Q04DX003 (ip), vehicle: Klucel (hydroxypropylcellulose) (HPC)
[6] = dose: 400.0 mg/kg/injection, schedule: Q04DX003 (ip), vehicle: Klucel (hydroxypropylcellulose) (HPC)
[7] = dose: 100.0 mg/kg/injection, schedule: Q01DX001 (ip), vehicle: other
[8] = dose: 200.0 mg/kg/injection, schedule: Q01DX001 (ip), vehicle: other
[9] = dose: 400.0 mg/kg/injection, schedule: Q01DX001 (ip), vehicle: other
[10] = dose: 12.5 mg/kg/injection, schedule: Q04DX003 (ip), vehicle: saline with Tween-80

Measured: T/C

Cc1nc([Se]c2nc(C)n3ccncc23)c2cnccn12
inactive: [1] 98 % of control | [2] 95 % of control | [3] 93 % of control

CCCCNC(=O)C1CCCC(C(=O)NCCCC)C1 (stereo unspecified)
inactive: dose: 75.0 mg/kg/injection, schedule: Q01DX009 (ip), vehicle: saline 96 % of control | dose: 150.0 mg/kg/injection, schedule: Q01DX009 (ip), vehicle: saline 102 % of control | dose: 300.0 mg/kg/injection, schedule: Q01DX009 (ip), vehicle: saline 87 % of control

O=C1C(=O)c2ccccc2C(O)=C1C(CCc1ccccc1)C1=C(O)c2ccccc2C(=O)C1=O
inactive: dose: 75.0 mg/kg/injection, schedule: Q01DX001 (ip), vehicle: carboxymethylcellulose (CMC) 106 % of control | dose: 75.0 mg/kg/injection, schedule: Q01DX001 (ip), vehicle: saline 96 % of control | dose: 150.0 mg/kg/injection, schedule: Q01DX001 (ip), vehicle: saline 94 % of control

CCCCOCC(=O)OCCCC
inactive: dose: 100.0 mg/kg/injection, schedule: Q01DX009 (ip), vehicle: saline 103 % of control | [1] 93 % of control | dose: 200.0 mg/kg/injection, schedule: Q01DX009 (ip), vehicle: saline 105 % of control | [2] 94 % of control | dose: 400.0 mg/kg/injection, schedule: Q01DX009 (ip), vehicle: saline 87 % of control | [3] 93 % of control

CC1=NNC(=O)C1
inactive: dose: 50.0 mg/kg/injection, schedule: Q01DX009 (ip), vehicle: carboxymethylcellulose (CMC) 100 % of control | dose: 100.0 mg/kg/injection, schedule: Q01DX009 (ip), vehicle: carboxymethylcellulose (CMC) 114 % of control | [4] 89 % of control | [1] 112 % of control | dose: 200.0 mg/kg/injection, schedule: Q01DX009 (ip), vehicle: carboxymethylcellulose (CMC) 114 % of control | [5] 98 % of control | [2] 105 % of control | [6] 96 % of control | [3] 112 % of control

CCCCOc1cc([N+](=O)[O-])ccc1CO
inactive: dose: 100.0 mg/kg/injection, schedule: Q01DX009 (ip), vehicle: saline with Tween-80 109 % of control | dose: 200.0 mg/kg/injection, schedule: Q01DX009 (ip), vehicle: saline with Tween-80 98 % of control | dose: 400.0 mg/kg/injection, schedule: Q01DX009 (ip), vehicle: saline with Tween-80 98 % of control

C=C(C)C1CCC2=CCCC(C)C2(C)C1 (stereo unspecified)
inactive: dose: 100.0 mg/kg/injection, schedule: Q04DX003 (ip), vehicle: acetone 98 % of control | dose: 200.0 mg/kg/injection, schedule: Q04DX003 (ip), vehicle: acetone 96 % of control

NNC(=O)c1ccccc1CO
inactive: dose: 100.0 mg/kg/injection, schedule: Q01DX001 (ip), vehicle: saline with Tween-80 100 % of control | dose: 200.0 mg/kg/injection, schedule: Q01DX001 (ip), vehicle: saline with Tween-80 103 % of control

C/C=C/C(O)(C(=O)OCC)C1CCCCC1 (stereo unspecified)
inactive: [7] 107 % of control | [8] 98 % of control | [9] 102 % of control

CN1CCCCC1CCN1c2ccccc2Sc2ccc(S(C)=O)cc21 (stereo unspecified)
inactive: dose: 6.25 mg/kg/injection, schedule: Q01DX009 (ip), vehicle: saline 97 % of control | dose: 12.5 mg/kg/injection, schedule: Q01DX009 (ip), vehicle: saline 98 % of control and 101 % of control and 108 % of control | dose: 25.0 mg/kg/injection, schedule: Q01DX009 (ip), vehicle: saline 100 % of control and 101 % of control (2×) | dose: 25.0 mg/kg/injection, schedule: Q04DX003 (ip), vehicle: saline 112 % of control | dose: 50.0 mg/kg/injection, schedule: Q01DX009 (ip), vehicle: saline 119 % of control | dose: 50.0 mg/kg/injection, schedule: Q04DX003 (ip), vehicle: saline 115 % of control | dose: 100.0 mg/kg/injection, schedule: Q04DX003 (ip), vehicle: saline 105 % of control

CC(=O)OC(C#N)c1ccco1 (stereo unspecified)
inactive: dose: 3.0 mg/kg/injection, schedule: Q01DX009 (ip), vehicle: saline with Tween-80 91 % of control | dose: 3.0 mg/kg/injection, schedule: Q04DX003 (ip), vehicle: saline with Tween-80 105 % of control | dose: 6.0 mg/kg/injection, schedule: Q01DX009 (ip), vehicle: saline with Tween-80 100 % of control | dose: 6.0 mg/kg/injection, schedule: Q04DX003 (ip), vehicle: saline with Tween-80 101 % of control | dose: 12.0 mg/kg/injection, schedule: Q01DX009 (ip), vehicle: saline with Tween-80 91 % of control | dose: 12.0 mg/kg/injection, schedule: Q04DX003 (ip), vehicle: saline with Tween-80 101 % of control | [10] 89 % of control

CN(C)CCCN=Cc1cc(Cl)ccc1O.CN(C)CCCN=Cc1cc(Cl)ccc1O.[Ni+2]
inactive: dose: 6.25 mg/kg/injection, schedule: Q04DX003 (ip), vehicle: saline with Tween-80 92 % of control | [10] 105 % of control | dose: 25.0 mg/kg/injection, schedule: Q04DX003 (ip), vehicle: saline with Tween-80 97 % of control

CC1=C2CCCC(=O)C2(C)CCC1=O (stereo unspecified)
inactive: dose: 100.0 mg/kg/injection, schedule: Q04DX002 (ip), vehicle: Klucel (hydroxypropylcellulose) (HPC) 107 % of control | dose: 200.0 mg/kg/injection, schedule: Q04DX002 (ip), vehicle: Klucel (hydroxypropylcellulose) (HPC) 96 % of control

CC(Cc1ccccc1)NN (stereo unspecified)
inactive: dose: 3.9 mg/kg/injection, schedule: Q01DX009 (ip), vehicle: saline 93 % of control | dose: 7.81 mg/kg/injection, schedule: Q01DX009 (ip), vehicle: saline 96 % of control | dose: 15.62 mg/kg/injection, schedule: Q01DX009 (ip), vehicle: saline 93 % of control | dose: 15.62 mg/kg/injection, schedule: Q04DX003 (ip), vehicle: saline 107 % of control | dose: 31.25 mg/kg/injection, schedule: Q04DX003 (ip), vehicle: saline 98 % of control | dose: 62.5 mg/kg/injection, schedule: Q04DX003 (ip), vehicle: saline 104 % of control

CC(=O)C1CCCC23CC(CC12)C(C)(C)C3OC=O (stereo unspecified)
inactive: dose: 100.0 mg/kg/injection, schedule: Q01DX009 (ip), vehicle: Klucel (hydroxypropylcellulose) (HPC) 96 % of control | [4] 90 % of control | dose: 200.0 mg/kg/injection, schedule: Q01DX009 (ip), vehicle: Klucel (hydroxypropylcellulose) (HPC) 100 % of control | [5] 92 % of control | dose: 400.0 mg/kg/injection, schedule: Q01DX009 (ip), vehicle: Klucel (hydroxypropylcellulose) (HPC) 107 % of control | [6] 95 % of control

O=C(NCc1ccccc1)c1ccc(C(=O)NCc2ccccc2)cc1
inactive: [7] 90 % of control | [8] 88 % of control | [9] 96 % of control

O=c1cc(CCc2ccccc2)cc[nH]1
inactive: dose: 100.0 mg/kg/injection, schedule: Q01DX001 (ip), vehicle: saline 97 % of control | dose: 200.0 mg/kg/injection, schedule: Q01DX001 (ip), vehicle: saline 103 % of control | dose: 400.0 mg/kg/injection, schedule: Q01DX001 (ip), vehicle: saline 111 % of control
